Experimental data: patent US8431530B2, “Compositions and methods for treating aids or cancer by inhibiting the secretion of microparticles” (priority 2009, dated 2013)

Legend:
[1] = system: pNL4-3 in 293 cells; test: p24 assay of virion production after pNL4-3 co-transfection; assay type: cell-based, HIV; settings: for p24: co-transfected with pNL4-3; for Effect (a/b): p24 of sample / p24 of pNL4-3 + sM1
Protocol: pNL4-3 is a clone containing the viral genome. Transfection into cells allows expression of the viral genome and ultimately virion formation and release. The amount of virion production in the extracellular supernatant is measured through p24 protein (viral protein). Samples were collected at 48 hours and 96 hours post-infection.
At 48 hr postinfection two plates in each group were removed and analyzed by: • a. p24 assay • b. Nef assay • c. Infectivity assay • At 96 hr postinfection the other two plates in each group were removed and analyzed by: • a. p24 assay • b. Nef assay • c. Infectivity assay

[2] = system: MDA-MB-231 cells; test: Exosome (AChE marker) secretion from tumor cells, immunoblot; assay type: cell-based, human; settings: MDA-MB-231, Chariot transfection, 48 hr, immunoblot densitometry normalized to tubulin; dose dependency in both compartments
Source text: FIG. 1 is a composite of diagrams showing the synthetic HIV-1 NefSMRwt peptide (antagonist) and HIV-1 NefSMRmt peptide (negative control) (panel A); the vector constructs expressing HIV-1 NefSMRwt peptide fused with GFP or HIV-1 NefSMRmt peptide fused with GFP (panel B); and the amount of acetylcholinesterase, a marker for exosomes, in MDA-MB-231 cells transfected with either HIV-1 NefSMRwt peptide (panelC) or SMRmt peptide (panel D). Untransfected MDA-MB-231 cells were used as negative controls. The cells were cultured for 48 hours in serum-free medium. One ml of supernatant was spun at 400,000×g. Supernatant pellets or set volume of cell lysate were run on PAGE, blotted, and probed with anti-AchE mAb (Acetylcholinesterase—1:1000 dilution; marker for exosomes). The cell lyasates were reprobed with anti-Tubulin mAb (1:4000). Bands were measured by densitometry, normalized against intracellular tubulin. Data shown here as percent relative to the untransfected control.
MDA-MB-231 cells were derived from human breast adenocarcinoma and […], and were obtained from the American Type Culture Collection (Manassas, Va.). […]
Pellets were resuspended in 1×SDS-PAGE loading buffer, separated by SDS-PAGE. […] Protein bands were detected by Western Blotting Luminol Reagent (Santa Cruz Biotechnology, Inc., Santa Cruz, Calif.). […]

[3] = system: Mortalin/GRP75 and other cellular factors of Jurkat cell lysates; test: FLAG immuno-precipitation pulldown of cellular factors, MS and Western blot; assay type: binding; settings: FLAG IP on Jurkat cell lysates
Protocol: SMRwt vs. SMRmt peptides were used in conjunction with FLAG immuno-precipitation on Jurkat cell lysates to pulldown cellular factors that interacted with the SMRwt antagonist, but not with the SMRmt negative control. The cellular factor(s) that interact with the antagonist are analyzed by the FLAG IP assay. Briefly, cell lysates are combined with AminoLink Plus resin coupled to FLAG-tagged SMR peptides. SMR-specific cellular proteins (ROY) bind to the SMR peptides on the resin. Non-specific contaminants (G BIV) are washed off of the resin and removed by centrifugation. The SMR-specific cell proteins (ROY) are eluted and collected. Some strongly bound contaminants (V) are also eluted and collected.
Mortalin interacts with p53, and is shown to be involved in apoptosis and vesicle transport (MAC complex). It is also found in microvesicles released by tumor cells.
The gel was also Western probed with α-Mortalin antibody. A protein with a molecular weight of ˜75 kDa was detected in the lanes containing the cell lysate, the antagonist eluate, and the antagonist affinity resin (FIG. 13, panel B, Lanes 1, 3, and 5), but not in the negative control or negative control peptide eluate's lanes (FIG. 13, panel B, Lanes 2 and 4).

Row | Substance | p24 ([1]; 293, 48 hr) [pg/mL] | Effect (a/b) ([1]; 293, 48 hr) | p24 ([1]; 293, 96 hr) [pg/mL] | Effect (a/b) ([1]; 293, 96 hr) | AChE (exosome marker) intracellularly and in the cell supernatant [2] | ~75 kDa protein in peptide eluate, Western probed with α-Mortalin antibody [3] | cellular proteins in bands of the SMRwt lane but not the SMRmt lane (MALDI TOF MS/MS, LC/MS/MS) ([3]; SDS PAGE)
1 | H2N-AGFPVAAAGFPVDYKDDDDK-OH (H-AGFPVAAAGFPVDYKDDDDK-OH) [SMRmt] | 30 | 0.67 | 1125 | 1.17 | no effect | – | –
2 | H-VGFPVAAVGFPVDYKDDDDK-OH [SMRwt] | 90 | 2 | 345 | 0.359 | knocked down AChE intracellularly and in the cell supernatant | detected | Mortalin/GRP75; Myosin 10; Vimentin; GRP78; HSC70
